Laboratory results published in patent US10865216B2, “Tricyclic Gyrase inhibitors” (MERCK SHARP & DOHME CORP., priority 2012, dated 2020).
Values after ≈ are worked out from the molar mass of the structure shown. Where two headings read alike, the source gives them in different places. One block for each compound: values may come before it.

Legend:
S. aureus ATCC 13709 = experiment: MIC, S. aureus ATCC 13709; type: cell-based; conditions: for MIC: Staphylococcus aureus
E. coli ATCC 25922 = experiment: MIC, E. coli ATCC 25922; type: cell-based; conditions: for MIC: Escherichia coli
[1] = S. aureus, Alamar Blue read after overnight incubation at 35° C.
[2] = E. coli, Alamar Blue read after overnight incubation at 35° C.
[3] = ATCC13709, S. aureus, Alamar Blue read after overnight incubation at 35° C., read-out: MIC Sa
[4] = ATCC25922, E. coli, Alamar Blue read after overnight incubation at 35° C., read-out: MIC Ec
[5] = ATCC13709, Table 16, new R4 substituents, read-out: SA MIC
[6] = ATCC25922, Table 16, new R4 substituents, EC8 not defined, read-out: EC8 MIC

MIC Sa (S. aureus ATCC 13709; [1]): ≤0.5 µg/mL | MIC Ec (E. coli ATCC 25922; [2]): 1 µg/mL (≈ 2.06 µM)
SMILES: CNc1cc(F)cc2c1[nH]c1nc(Oc3cnc4cccnc4c3)nc(N3CC4NCCOC4C3)c12 (centres unmarked) [Compound 4.048]

MIC (S. aureus ATCC 13709; [3]): ≤ 0.5 µg/mL | MIC (E. coli ATCC 25922; [4]): 1 µg/mL (≈ 2.13 µM)
SMILES: CNc1cccc2c1[nH]c1nc(Sc3cnc4cccnc4c3)nc(N3CC(N)C4(CC4)C3)c12 (centres unmarked) [Compound 1.27]

MIC Sa (S. aureus ATCC 13709; Table 18, Sa): ≤ 0.5 µg/mL | MIC Ec (E. coli ATCC 25922; Table 18, Ec): ≤ 0.5 µg/mL
SMILES: CNc1cc(F)c(F)c2c1[nH]c1nc(Oc3cnc4c(C)cnn4c3)nc(N3C[C@H]4C[C@@H]3C[C@H]4N)c12 [Compound 10.26]

MIC Sa (S. aureus ATCC 13709; [1]): 32 µg/mL (≈ 76.1 µM) | MIC Ec (E. coli ATCC 25922; [2]): >16 µg/mL
SMILES: CNc1cc(F)cc2c1[nH]c1nc(Oc3ccnnc3)nc(N3CC(N)C4(CC4)C3)c12 (centres unmarked) [Compound 4.230]

MIC Sa (S. aureus ATCC 13709; [1]): 64 µg/mL (≈ 140 µM) | MIC Ec (E. coli ATCC 25922; [2]): >64 µg/mL
SMILES: Nc1cccc2c1[nH]c1nc(Sc3cnc4ccc[n+]([O-])c4c3)nc(N3CC4C(N)C4C3)c12 (centres unmarked) [Compound 1.08]

MIC Sa (S. aureus ATCC 13709; Table 18, Sa): ≤ 0.5 µg/mL | MIC Ec (E. coli ATCC 25922; Table 18, Ec): ≤ 0.5 µg/mL
SMILES: CNc1cc(F)cc2c1[nH]c1nc(Oc3cnc(C(C)O)nc3)nc(N3C[C@@H]4[C@H](N)C(F)[C@@H]4C3)c12 (some centres unmarked) [Compound 10.63]

MIC (S. aureus ATCC 13709; [3]): ≤ 0.5 µg/mL | MIC (E. coli ATCC 25922; [4]): ≤ 0.5 µg/mL
SMILES: CNc1cccc2c1[nH]c1nc(Oc3cnc(C)nc3)cc(N3CC4C(N)C4C3)c12 (centres unmarked) [Compound 3.29]

MIC Sa (S. aureus ATCC 13709; [1]): ≤0.5 µg/mL | MIC Ec (E. coli ATCC 25922; [2]): 1 µg/mL (≈ 2.29 µM)
SMILES: CNc1cc(F)cc2c1[nH]c1nc(Oc3cnc(C)nc3)nc(N3CCCC(C)(N)C3)c12 (centres unmarked) [Compound 4.088]

MIC (S. aureus ATCC 13709; [3]): 16 µg/mL (≈ 28.3 µM) | MIC (E. coli ATCC 25922; [4]): > 16 µg/mL
SMILES: CNc1cc(F)cc2c1[nH]c1nc(Oc3cnc(C)nc3)nc(N3CC(N)C(C(=O)NCCN4CCOCC4)C3)c12 (centres unmarked) [Compound 4.440]

MIC Sa (S. aureus ATCC 13709; [1]): ≤0.5 µg/mL | MIC Ec (E. coli ATCC 25922; [2]): ≤0.5 µg/mL
SMILES: CNc1cc(F)cc2c1[nH]c1nc(Oc3ccc(C#N)nc3)nc(N3CC4CC(N)C4C3)c12 (centres unmarked) [Compound 4.332]

MIC (S. aureus ATCC 13709; [3]): 4 µg/mL (≈ 8.72 µM) | MIC (E. coli ATCC 25922; [4]): 16 µg/mL (≈ 34.9 µM)
SMILES: CNc1cccc2c1[nH]c1nc(Sc3cnc4ccc[n+]([O-])c4c3)nc(N3CC(CN)C3)c12 [Compound 1.20]

MIC Sa (S. aureus ATCC 13709; [1]): ≤0.5 µg/mL | MIC Ec (E. coli ATCC 25922; [2]): 1 µg/mL (≈ 2.48 µM)
SMILES: CNc1cc(C)cc2c1[nH]c1nc(Oc3cncnc3)nc(N3CC4C(N)C4C3)c12 (centres unmarked) [Compound 6.27]

MIC Sa (S. aureus ATCC 13709; [1]): ≤0.5 µg/mL | MIC Ec (E. coli ATCC 25922; [2]): 1 µg/mL (≈ 2.22 µM)
SMILES: CNc1cc(F)cc2c1[nH]c1nc(Oc3cnc(C)nc3)nc(N3CCC(N)C(C)(C)C3)c12 (centres unmarked) [Compound 4.152]

MIC (S. aureus ATCC 13709; [5]): 8 µg/mL (≈ 15.7 µM) | MIC (E. coli ATCC 25922; [6]): > 16 µg/mL
SMILES: CNc1cc(F)cc2c1[nH]c1nc(Oc3cnc(C)nc3)nc(N3CC(N)C(C(=O)NCC(C)O)C3)c12 (centres unmarked) [drawing 1822]

MIC Sa (S. aureus ATCC 13709; [1]): ≤0.5 µg/mL | MIC Ec (E. coli ATCC 25922; [2]): ≤0.5 µg/mL
SMILES: CNc1cccc2c1[nH]c1nc(Sc3cnc4ccc[n+]([O-])c4c3)nc(N3CC4C(N)C4C3)c12 (centres unmarked) [Compound 1.71]

MIC Sa (S. aureus ATCC 13709; Table 18, Sa): ≤ 0.5 µg/mL | MIC Ec (E. coli ATCC 25922; Table 18, Ec): ≤ 0.5 µg/mL
SMILES: CNc1cc(F)cc2c1[nH]c1nc(Oc3cnc4ccoc4c3)nc(N3C[C@H]4CCN[C@H]4C3)c12 [Compound 10.14]

MIC Sa (S. aureus ATCC 13709; [1]): ≤0.5 µg/mL | MIC Ec (E. coli ATCC 25922; [2]): ≤0.5 µg/mL
SMILES: CNc1cc(F)cc2c1[nH]c1nc(Oc3cncc(C#N)c3)nc(N3CC4CC(N)C4C3)c12 (centres unmarked) [Compound 4.053]

MIC (S. aureus ATCC 13709; [3]): ≤ 0.5 µg/mL | MIC (E. coli ATCC 25922; [4]): > 16 µg/mL
SMILES: CNc1cc(F)cc2c1[nH]c1nc(Oc3cnc(C)nc3)nc(-c3ccc(Cl)c(N)c3)c12 [Compound 4.432]

MIC Sa (S. aureus ATCC 13709; [1]): ≤0.5 µg/mL | MIC Ec (E. coli ATCC 25922; [2]): ≤0.5 µg/mL
SMILES: CNc1cccc2c1[nH]c1nc(Sc3cnc4ccc[n+]([O-])c4c3)nc(N3CC4C(N)C4C3)c12 (centres unmarked) [Compound 1.49]

MIC Sa (S. aureus ATCC 13709; Table 18, Sa): ≤ 0.5 µg/mL | MIC Ec (E. coli ATCC 25922; Table 18, Ec): ≤ 0.5 µg/mL
SMILES: CNc1cc(F)c(Cl)c2c1[nH]c1nc(Oc3cnc4ccnn4c3)nc(N3CC4(CC[C@]4(C)N)C3)c12 [Compound 10.90]

MIC (S. aureus ATCC 13709; [3]): 4 µg/mL (≈ 9.96 µM) | MIC (E. coli ATCC 25922; [4]): 16 µg/mL (≈ 39.9 µM)
SMILES: CNc1cccc2c1[nH]c1nc(Oc3cncnc3)cc(N3C[C@@H]4CNC[C@H]4C3)c12 [Compound 3.61]

MIC Sa (S. aureus ATCC 13709; [1]): 2 µg/mL (≈ 4.06 µM) | MIC Ec (E. coli ATCC 25922; [2]): 16 µg/mL (≈ 32.5 µM)
SMILES: CNc1cc(F)cc2c1[nH]c1nc(Oc3cnc(N)nc3)nc(N3CC(NC(=O)CN)C4(CC4)C3)c12 (centres unmarked) [Compound 4.182]

MIC (S. aureus ATCC 13709; [5]): ≤ 0.5 µg/mL | MIC (E. coli ATCC 25922; [6]): 8 µg/mL (≈ 20.4 µM)
SMILES: CNc1cc(F)cc2c1[nH]c1nc(Oc3cnc(C)nc3)nc(C3=CCNC3)c12

MIC Sa (S. aureus ATCC 13709; Table 18, Sa): ≤ 0.5 µg/mL | MIC Ec (E. coli ATCC 25922; Table 18, Ec): ≤ 0.5 µg/mL
SMILES: CNc1cc(F)c(Cl)c2c1[nH]c1nc(Oc3cnc([C@@H](C)O)nc3)nc(N3CC4(CC[C@@H]4N)C3)c12 [Compound 10.88]

MIC Sa (S. aureus ATCC 13709; Table 18, Sa): ≤ 0.5 µg/mL | MIC Ec (E. coli ATCC 25922; Table 18, Ec): ≤ 0.5 µg/mL
SMILES: CNc1cc(F)cc2c1[nH]c1nc(Oc3cnc(C(C)O)c(F)c3)nc(N3C[C@H]4C[C@@H]3C[C@H]4N)c12 (some centres unmarked) [Compound 10.29]

MIC Sa (S. aureus ATCC 13709; Table 18, Sa): ≤ 0.5 µg/mL | MIC Ec (E. coli ATCC 25922; Table 18, Ec): 2 µg/mL (≈ 4.08 µM)
SMILES: CNc1cc(F)c(F)c2c1[nH]c1nc(Oc3cnc(C)nc3)nc(N3CCC(S(N)(=O)=O)C3)c12 (centres unmarked) [Compound 10.106]

MIC Sa (S. aureus ATCC 13709; Table 18, Sa): ≤ 0.5 µg/mL | MIC Ec (E. coli ATCC 25922; Table 18, Ec): ≤ 0.5 µg/mL
SMILES: CNc1ncc(Oc2nc(N3CCC4(CC[C@H]4N)C3)c3c(n2)[nH]c2c(NC)cc(F)cc23)cn1 (some centres unmarked) [Compound 10.102]

MIC Sa (S. aureus ATCC 13709; [1]): ≤0.5 µg/mL | MIC Ec (E. coli ATCC 25922; [2]): 1 µg/mL (≈ 2.14 µM)
SMILES: CNc1cc(F)cc2c1[nH]c1nc(Oc3cnc(SC)nc3)nc(N3CCC4(CC4N)C3)c12 (centres unmarked) [Compound 4.195]
